For data set [1], the target named is T1, GFRα1/RET (Homo sapiens, UniProt P07949).
T1 construct: full-length human RET (long isoform) in pCR3.1; expressed in transfected cells; host or cells: MG87 murine fibroblasts (MG87RET + PathDetect Elk-1 + GFRα1)
Kind of data set: Luciferase reporter-gene assay (PathDetect Elk-1), GFRα1/RET reporter cells. It is filed as cell-based. As to conditions: GFRα1/RET reporter cell line. (In general: A reporter such as luciferase makes a cellular process visible.)

Data set [2] concerns the target T2, TrkB (Rattus norvegicus, UniProt Q63604).
T2 construct: expressed in transfected cells; host or cells: MG87 murine fibroblasts (MG87TrkB)
As to the kind of experiment: TrkB phosphorylation assay in MG87TrkB cells. The data set is classed as cell-based. As to conditions: BT13 10–100 μM, BDNF positive control. The method, then:
(§1) MG87RET, MG87TrkA, or MG87TrkB were plated on 35 mm tissue culture dishes 1–2 days before the experiment to achieve 90–95% of confluency of the cells at the day of stimulation with tested substances. If necessary, cells were transfected with 4 μg/well of GFRα1-, GFRα3-, or green fluorescent protein (GFP)-expressing plasmid using Lipofectamine 2000 (Invitrogen) for DNA delivery as described by manufacturer. Before the experiment cells were starved in serum-free DMEM containing 15 mM HEPES, pH 7.2 and 1% DMSO for 4 h and stimulated with BT13 or neurotrophic factors. Then cells were washed once with ice-cold PBS containing 1 mM Na3VO4 and 1 mM NaF and lysed on ice in 1 ml per well of RIPA-modified buffer (50 mM Tris-HCl, pH 7.4, 150 mM NaCl, 1 mM EDTA, 1% NP-40, 1% TX-100, 10% glycerol, EDTA-free protease inhibitor cocktail (Roche), 1 mM Na3VO4, 2.5 mg/ml of sodium deoxycholate, 1 mM NaF). Plates were incubated at +4°C on the horizontal shaker for 30 min with vigorous shaking. Afterwards, 80–100 μl aliquot was taken from each well to prepare whole cell lysates. This aliquot was mixed with equal volume of 2x Laemmli loading buffer (4% SDS, 20% glycerol, 10% 2-mercaptoethanol, 0.004% bromphenol blue, 0.125 M Tris HCl, pH 6.8) and boiled for 10 min at 100°C. Remaining cell lysates were used for immunoprecipitation of RET or Trk receptors. […]

Data set [3] concerns the target T3, histamine receptor H1 (Homo sapiens, UniProt P35367).
T3 construct: purchased CEREP (contract assay) 0870
Kind of data set: CEREP H1 (h) (antagonist radioligand). The following applies: BT13 1 μM; Cat. No. 0870; average of duplicate; read-out: Percentage of inhibition/potentiation from control. The data set is classed as binding.

Data set [4] concerns Akt and Erk phosphorylation in MG87TrkB. As to the kind of experiment: Erk1/2 and Akt phosphorylation assay in MG87TrkB cells. It is filed as cell-based, murine. As to conditions: BT13 10–100 μM, BDNF positive control. On the procedure: as §1
Data set [5] addresses T4, CYP3A4 (Homo sapiens, UniProt P08684).
T4 construct: Cyathus Exquirere (contract laboratory)
As to the kind of experiment: CYP inhibition, fluorescent assay. The data set is classed as biochemical. As to conditions: read-out: Inhibition of CYP isoforms (IC50), CYP3A4.

Data set [6] deals with T5, RET (Homo sapiens, UniProt P07949).
T5 construct: full-length human RET (long isoform) in pCR3.1; expressed in transfected cells; host or cells: MG87RET murine fibroblasts
Kind of data set: Luciferase reporter-gene assay (PathDetect Elk-1), RET reporter cells. The data set is classed as cell-based. As to conditions: RET reporter cell line.

A short description of data set [7]: Plasma stability, rat plasma. It is filed as in vitro ADME. The following applies: read-out: Plasma stability (% remaining after 1 h).
Data set [8] is described as follows: Solubility in the binding buffer. It is filed as physicochemical. As to conditions: concentrations above 50 μM could not be tested.
Data set [9] concerns the target T6, GDNF receptor complexes (cells overexpressing GFRα1/RET) (Homo sapiens, UniProt P07949).
T6 construct: full-length human RET (long isoform) in pCR3.1; expressed in transfected cells
As to the kind of experiment: Displacement of 125I-GDNF. The data set is classed as binding. The following applies: BT13 50 μM; n = 5. A general note: Loss of bound radioactivity is the signal in a displacement assay; it reports binding, not function.

Data set [10] addresses KATP channel (Rattus norvegicus, UniProt Q09429). As to the kind of experiment: CEREP KATP channel (antagonist radioligand). It is filed as binding. The following applies: BT13 1 μM; Cat. No. 0165; average of duplicate; read-out: Percentage of inhibition/potentiation from control.
Where [11] appears, read: 0.1–50 μM, read-out: EC50, luciferase activation.

One may read the EC50 as the concentration that produces a half-maximal response. In general, IC50 refers to the concentration that gives 50% inhibition.

T1 sequence (P07949 29-1114): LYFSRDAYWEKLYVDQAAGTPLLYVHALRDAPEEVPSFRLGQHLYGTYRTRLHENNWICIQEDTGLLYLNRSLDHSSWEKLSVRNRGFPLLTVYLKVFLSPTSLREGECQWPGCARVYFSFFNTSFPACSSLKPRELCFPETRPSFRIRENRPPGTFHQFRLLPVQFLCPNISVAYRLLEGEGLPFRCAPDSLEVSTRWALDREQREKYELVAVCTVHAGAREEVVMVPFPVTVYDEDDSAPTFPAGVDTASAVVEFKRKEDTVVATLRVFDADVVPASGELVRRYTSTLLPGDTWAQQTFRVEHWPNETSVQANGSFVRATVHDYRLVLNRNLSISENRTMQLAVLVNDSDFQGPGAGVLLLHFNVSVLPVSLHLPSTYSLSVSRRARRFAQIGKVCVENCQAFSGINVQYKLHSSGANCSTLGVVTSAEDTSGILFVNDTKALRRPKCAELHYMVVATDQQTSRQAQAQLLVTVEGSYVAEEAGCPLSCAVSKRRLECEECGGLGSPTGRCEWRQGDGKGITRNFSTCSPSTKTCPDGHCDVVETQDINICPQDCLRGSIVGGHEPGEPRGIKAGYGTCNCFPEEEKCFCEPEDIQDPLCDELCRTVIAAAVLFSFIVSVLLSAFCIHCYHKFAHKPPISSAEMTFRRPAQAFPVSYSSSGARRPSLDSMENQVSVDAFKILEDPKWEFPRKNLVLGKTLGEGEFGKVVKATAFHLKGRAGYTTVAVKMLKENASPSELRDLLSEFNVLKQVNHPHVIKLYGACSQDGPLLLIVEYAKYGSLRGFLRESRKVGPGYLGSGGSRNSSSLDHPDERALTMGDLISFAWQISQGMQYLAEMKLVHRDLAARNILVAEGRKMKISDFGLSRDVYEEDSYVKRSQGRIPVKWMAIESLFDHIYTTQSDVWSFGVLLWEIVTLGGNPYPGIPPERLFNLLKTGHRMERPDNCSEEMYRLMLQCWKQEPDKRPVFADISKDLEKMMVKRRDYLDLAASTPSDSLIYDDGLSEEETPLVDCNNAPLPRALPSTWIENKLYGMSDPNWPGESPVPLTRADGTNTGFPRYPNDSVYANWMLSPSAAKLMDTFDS
T5 sequence (P07949 29-1114): as above
T2 sequence (Q63604 32-821): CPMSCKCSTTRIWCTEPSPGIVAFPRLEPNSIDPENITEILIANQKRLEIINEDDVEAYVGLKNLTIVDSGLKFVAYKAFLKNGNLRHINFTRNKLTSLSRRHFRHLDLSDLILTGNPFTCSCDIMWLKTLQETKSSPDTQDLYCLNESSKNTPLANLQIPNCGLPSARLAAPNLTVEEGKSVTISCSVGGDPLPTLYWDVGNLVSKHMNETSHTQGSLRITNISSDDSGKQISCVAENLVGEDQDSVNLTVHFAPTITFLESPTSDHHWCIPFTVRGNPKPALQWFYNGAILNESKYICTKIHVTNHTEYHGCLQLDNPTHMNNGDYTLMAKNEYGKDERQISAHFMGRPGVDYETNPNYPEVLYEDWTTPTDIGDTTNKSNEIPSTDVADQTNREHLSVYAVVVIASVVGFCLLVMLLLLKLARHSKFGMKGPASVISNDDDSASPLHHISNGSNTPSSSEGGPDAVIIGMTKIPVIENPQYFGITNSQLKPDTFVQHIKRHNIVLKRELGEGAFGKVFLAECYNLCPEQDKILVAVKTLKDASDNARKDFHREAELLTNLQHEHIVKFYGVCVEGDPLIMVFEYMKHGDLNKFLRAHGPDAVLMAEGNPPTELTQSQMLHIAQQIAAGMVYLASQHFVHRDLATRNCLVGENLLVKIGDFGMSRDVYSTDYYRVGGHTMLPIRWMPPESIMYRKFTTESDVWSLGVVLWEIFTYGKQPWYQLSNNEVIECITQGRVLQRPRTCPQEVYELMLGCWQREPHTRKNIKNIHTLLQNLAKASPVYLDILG
KATP channel, sequence (Q09429 whole entry): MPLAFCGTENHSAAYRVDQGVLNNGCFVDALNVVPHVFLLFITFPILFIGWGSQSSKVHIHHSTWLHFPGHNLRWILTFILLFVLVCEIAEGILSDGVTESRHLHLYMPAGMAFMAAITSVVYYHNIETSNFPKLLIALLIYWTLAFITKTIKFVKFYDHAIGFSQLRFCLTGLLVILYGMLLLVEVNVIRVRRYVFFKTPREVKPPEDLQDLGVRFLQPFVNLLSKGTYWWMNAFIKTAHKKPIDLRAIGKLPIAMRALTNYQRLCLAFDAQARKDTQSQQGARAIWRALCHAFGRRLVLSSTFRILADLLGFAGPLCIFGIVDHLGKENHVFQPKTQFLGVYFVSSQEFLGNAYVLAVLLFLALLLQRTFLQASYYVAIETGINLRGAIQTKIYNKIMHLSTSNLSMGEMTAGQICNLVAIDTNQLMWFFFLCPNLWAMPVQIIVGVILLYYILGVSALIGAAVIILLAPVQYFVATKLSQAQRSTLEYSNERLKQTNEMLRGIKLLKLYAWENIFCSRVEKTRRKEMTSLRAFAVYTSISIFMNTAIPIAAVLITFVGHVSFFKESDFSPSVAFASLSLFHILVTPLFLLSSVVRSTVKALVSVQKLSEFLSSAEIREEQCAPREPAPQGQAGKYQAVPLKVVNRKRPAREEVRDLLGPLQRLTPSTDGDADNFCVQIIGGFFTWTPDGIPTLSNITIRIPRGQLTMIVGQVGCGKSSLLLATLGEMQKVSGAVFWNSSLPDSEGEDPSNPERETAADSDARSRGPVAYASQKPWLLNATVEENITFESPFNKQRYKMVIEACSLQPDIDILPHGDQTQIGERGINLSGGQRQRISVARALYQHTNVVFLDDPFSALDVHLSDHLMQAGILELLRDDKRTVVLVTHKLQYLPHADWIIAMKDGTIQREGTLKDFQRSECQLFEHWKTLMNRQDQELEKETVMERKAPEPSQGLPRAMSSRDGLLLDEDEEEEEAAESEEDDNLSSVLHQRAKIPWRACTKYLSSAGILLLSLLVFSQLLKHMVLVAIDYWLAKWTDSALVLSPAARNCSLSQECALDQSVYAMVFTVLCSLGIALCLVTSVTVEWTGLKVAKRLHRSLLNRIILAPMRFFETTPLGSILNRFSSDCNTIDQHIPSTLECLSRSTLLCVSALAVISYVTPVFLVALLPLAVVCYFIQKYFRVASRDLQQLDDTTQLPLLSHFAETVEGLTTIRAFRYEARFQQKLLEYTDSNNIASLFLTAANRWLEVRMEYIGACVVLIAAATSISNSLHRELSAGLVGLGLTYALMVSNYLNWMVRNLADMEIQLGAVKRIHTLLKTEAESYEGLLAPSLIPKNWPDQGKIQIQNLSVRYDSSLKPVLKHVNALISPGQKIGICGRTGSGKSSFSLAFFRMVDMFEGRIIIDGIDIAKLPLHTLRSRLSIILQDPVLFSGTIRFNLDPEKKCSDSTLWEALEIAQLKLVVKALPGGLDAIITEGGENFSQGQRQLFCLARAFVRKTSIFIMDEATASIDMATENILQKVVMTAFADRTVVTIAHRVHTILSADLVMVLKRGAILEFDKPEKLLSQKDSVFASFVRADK
KATP channel, sequence (P70673 whole entry partner): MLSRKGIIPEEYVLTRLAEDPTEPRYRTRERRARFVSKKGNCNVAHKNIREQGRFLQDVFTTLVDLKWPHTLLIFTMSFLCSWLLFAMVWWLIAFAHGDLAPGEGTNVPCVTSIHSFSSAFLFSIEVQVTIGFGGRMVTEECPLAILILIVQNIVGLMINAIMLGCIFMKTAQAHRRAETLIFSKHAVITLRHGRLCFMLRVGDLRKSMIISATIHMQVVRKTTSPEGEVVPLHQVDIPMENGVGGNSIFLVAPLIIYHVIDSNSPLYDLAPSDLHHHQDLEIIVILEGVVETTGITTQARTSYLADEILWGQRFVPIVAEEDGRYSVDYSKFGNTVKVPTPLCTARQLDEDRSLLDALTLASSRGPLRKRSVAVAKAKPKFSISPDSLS
T4 sequence (P08684 whole entry): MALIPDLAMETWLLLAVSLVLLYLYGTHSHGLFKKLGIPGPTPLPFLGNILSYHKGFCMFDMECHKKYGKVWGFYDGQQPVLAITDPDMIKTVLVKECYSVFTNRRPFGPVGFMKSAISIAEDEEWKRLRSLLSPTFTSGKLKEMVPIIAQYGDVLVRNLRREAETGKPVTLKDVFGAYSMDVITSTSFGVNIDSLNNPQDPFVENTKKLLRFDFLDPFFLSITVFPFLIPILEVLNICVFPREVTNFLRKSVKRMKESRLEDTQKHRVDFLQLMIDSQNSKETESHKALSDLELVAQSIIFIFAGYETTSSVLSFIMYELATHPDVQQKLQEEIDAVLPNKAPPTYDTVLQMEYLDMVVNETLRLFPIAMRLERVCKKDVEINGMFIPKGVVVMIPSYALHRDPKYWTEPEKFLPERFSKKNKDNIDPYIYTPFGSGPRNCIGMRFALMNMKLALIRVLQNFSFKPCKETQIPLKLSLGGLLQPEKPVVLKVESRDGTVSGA
T6 sequence (P07949 29-1114, one chain of several): as the sequence (P07949 29-1114) above
T3 sequence (P35367 whole entry): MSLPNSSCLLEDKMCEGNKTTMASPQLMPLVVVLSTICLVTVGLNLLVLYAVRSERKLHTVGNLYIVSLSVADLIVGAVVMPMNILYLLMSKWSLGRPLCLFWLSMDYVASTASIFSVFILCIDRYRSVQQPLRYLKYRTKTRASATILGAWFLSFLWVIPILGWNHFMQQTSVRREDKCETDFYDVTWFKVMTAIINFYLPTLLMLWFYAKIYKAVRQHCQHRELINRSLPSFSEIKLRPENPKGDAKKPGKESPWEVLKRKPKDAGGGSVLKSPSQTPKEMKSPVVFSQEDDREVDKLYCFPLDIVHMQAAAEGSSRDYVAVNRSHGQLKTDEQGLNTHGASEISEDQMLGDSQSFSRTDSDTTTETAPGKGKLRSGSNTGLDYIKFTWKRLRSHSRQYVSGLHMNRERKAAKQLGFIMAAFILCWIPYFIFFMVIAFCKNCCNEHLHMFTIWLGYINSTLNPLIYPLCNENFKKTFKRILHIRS

For the molecule `CCN(CC)S(=O)(=O)c1ccc(OC)c(N2CCN(C(=O)c3ccc(F)cc3C(F)(F)F)CC2)c1` [BT13], the results for the “efficacy, fold induction of luciferase above baseline” value in [1] and in data set [6] were 11.6 fold and 7.4 fold, respectively. In addition, the 50% effective concentration (EC50) came to 17.4 µM in [1] (setting [11]) and 20.7 µM in data set [6] (setting [11]). In addition, the “TrkB phosphorylation, Western blotting” value in data set [2] is recorded as “did not produce any detectable increase”. Besides, the inhibition at 1 µM in data set [3] was 5%; in data set [10], 8%. In addition, the “Akt and Erk phosphorylation” value in data set [4] is recorded as “no Akt or Erk phosphorylation was observed”. Moreover, in data set [5], the IC50 was 3.2 ± 0.42 µM. In addition, in data set [7], the share remaining at 1 h was found to be 108 ± 7.3%. Moreover, the “solubility in the binding buffer” value in data set [8] is reported as “poor solubility”. The “reduction of 125I-GDNF binding” value in data set [9] is recorded as 25 ± 10.2%.

For the origin of these results see publication PMC5478727, “A Novel Small Molecule GDNF Receptor RET Agonist, BT13, Promotes Neurite Growth from Sensory Neurons in Vitro and Attenuates Experimental Neuropathy in the Rat” (Frontiers in Pharmacology, 2017).
